The results in this text go back to patent publication EP3623369A1, “NOVEL MORPHOLINYL AMINE COMPOUNDS FOR THE TREATMENT OF AUTOIMMUNE DISEASE” (F. Hoffmann-La Roche AG, priority 2018, dated 2020).

The assay deals with T1, hTLR9 (Homo sapiens, UniProt Q9NR96).
T1 sequence (Q9NR96 26-1032): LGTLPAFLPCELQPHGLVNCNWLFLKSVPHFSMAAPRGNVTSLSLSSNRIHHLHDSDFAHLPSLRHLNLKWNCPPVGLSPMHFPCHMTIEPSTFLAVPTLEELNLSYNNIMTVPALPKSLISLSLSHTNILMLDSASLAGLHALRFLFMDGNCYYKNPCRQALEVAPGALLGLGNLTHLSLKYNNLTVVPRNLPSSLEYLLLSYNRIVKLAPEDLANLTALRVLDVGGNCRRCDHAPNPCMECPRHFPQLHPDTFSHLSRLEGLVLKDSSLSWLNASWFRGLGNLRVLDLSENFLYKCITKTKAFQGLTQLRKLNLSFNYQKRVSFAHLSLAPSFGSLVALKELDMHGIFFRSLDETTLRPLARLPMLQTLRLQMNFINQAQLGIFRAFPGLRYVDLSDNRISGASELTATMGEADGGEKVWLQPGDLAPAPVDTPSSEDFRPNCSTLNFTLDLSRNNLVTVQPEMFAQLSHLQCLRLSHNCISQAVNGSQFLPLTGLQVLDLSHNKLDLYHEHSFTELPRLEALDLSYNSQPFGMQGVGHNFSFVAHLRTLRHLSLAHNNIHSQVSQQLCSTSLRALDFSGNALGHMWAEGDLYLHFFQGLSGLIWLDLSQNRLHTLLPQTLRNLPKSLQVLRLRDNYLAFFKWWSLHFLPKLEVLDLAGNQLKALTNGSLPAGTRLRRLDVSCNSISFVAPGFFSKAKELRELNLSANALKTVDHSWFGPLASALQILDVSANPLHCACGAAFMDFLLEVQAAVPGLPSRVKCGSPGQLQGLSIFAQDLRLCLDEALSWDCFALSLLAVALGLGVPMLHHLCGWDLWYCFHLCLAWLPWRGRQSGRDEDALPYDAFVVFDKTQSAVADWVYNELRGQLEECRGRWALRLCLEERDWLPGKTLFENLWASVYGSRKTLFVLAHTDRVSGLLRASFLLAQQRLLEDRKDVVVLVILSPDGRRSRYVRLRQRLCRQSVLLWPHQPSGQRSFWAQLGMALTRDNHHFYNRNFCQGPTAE
In words: HEK293-Blue-hTLR-9 cells assay (SEAP reporter, ODN2006 stimulation). The assay is classed as cell-based. As to conditions: HEK293-Blue-hTLR9 cells, ODN2006, 20 hrs; 0.032 is the lowest tested concentration; read-out: HEK/hTLR9 IC50. The protocol: The following tests were carried out in order to determine the activity of the compounds of formula (I) or (Ia) in HEK293-Blue-hTLR-7/8/9 cells assay.
HEK293-Blue-hTLR-9 cells assay:
A stable HEK293-Blue-hTLR-9 cell line was purchased from InvivoGen (Cat.#: hkb-htlr9, San Diego, California, USA). These cells were originally designed for studying the stimulation of human TLR9 by monitoring the activation of NF-κB. A SEAP (secreted embryonic alkaline phosphatase) reporter gene was placed under the control of the IFN-β minimal promoter fused to five NF-κB and AP-1-binding sites. The SEAP was induced by activating NF-κB and AP-1 via stimulating HEK-Blue hTLR9 cells with TLR9 ligands. Therefore the reporter expression was declined by TLR9 antagonist under the stimulation of a ligand, such as ODN2006 (Cat.#: tlrl-2006-1, Invivogen, San Diego, California, USA), for incubation of 20 hrs. The cell culture supernatant SEAP reporter activity was determined using QUANTI-Blue™ kit (Cat.#: rep-qb1, Invivogen, San Diego, California, USA) at a wavelength of 640 nm, a detection medium that turns purple or blue in the presence of alkaline phosphatase.
HEK293-Blue-hTLR9 cells were incubated at a density of 250,000∼450,000 cells/mL in a volume of 170 µL in a 96-well plate in Dulbecco's Modified Eagle's medium (DMEM) containing 4.5 g/L glucose, 50 U/mL penicillin, […], […], 2 mM L-glutamine, 10% (v/v) heat-inactivated fetal bovine serum with addition of 20 µL test compound in a serial dilution in the presence of final DMSO at 1% and 10 µL of 20uM ODN2006 in above DMEM, perform incubation under 37 °C in a CO2 incubator for 20 hrs. Then 20 µL of the supernatant from each well was incubated with 180 µL Quanti-blue substrate solution at 37 °C for 2 hrs and the absorbance was read at 620∼655 nm using a spectrophotometer. The signalling pathway that TLR9 activation leads to downstream NF-κB activation has been widely accepted, and therefore similar reporter assay was modified for evaluating TLR9 antagonist.

Regarding `C[C@@H]1CN(c2ccc(C#N)c3ncsc23)C[C@H](CN2Cc3cc(N4CCNCC4)cnc3C2)O1` [Example 25, 7-[(2R,6S)-2-methyl-6-[(3-piperazin-1-yl-5,7-dihydropyrrolo[3,4-b]pyridin-6-yl)methyl]morpholin-4-yl]-1,3-benzothiazole-4-carbonitrile], the IC50 came to 63 nM.

Regarding `C[C@@H]1CN(c2ccc(C#N)n3nccc23)C[C@H](CN2Cc3ccc(OCCN(C)C)cc3C2)O1` [Example 28, 4-[(2S,6R)-2-[[5-[2-(dimethylamino)ethoxy]isoindolin-2-yl]methyl]-6-methyl-morpholin-4-yl]pyrazolo[1,5-a]pyridine-7-carbonitrile], the IC50 was 93 nM.

Consider `C[C@@H]1CN(c2ccc(C#N)n3ncc(F)c23)C[C@H](CN2Cc3cc(N4CCNCC4)cnc3C2)O1` [Example 29, 3-fluoro-4-[(2R,6S)-2-methyl-6-[(3-piperazin-1-yl-5,7-dihydropyrrolo[3,4-b]pyridin-6-yl)methyl]morpholin-4-yl]pyrazolo[1,5-a]pyridine-7-carbonitrile], for which the IC50 came to 134 nM. For `C[C@@H]1CN(c2ccc(C#N)c3nccnc23)C[C@H](CN2Cc3cc(N4CCNCC4)cnc3C2)O1` [Example 30, 8-[(2R,6S)-2-methyl-6-[(3-piperazin-1-yl-5,7-dihydropyrrolo[3,4-b]pyridin-6-yl)methyl]morpholin-4-yl]quinoxaline-5-carbonitrile] the value was 136 nM; for `C[C@@H]1CN(c2ccc(Cl)c3ncccc23)C[C@H](CN2Cc3ccc(N4CCNCC4)cc3C2)O1` [Example 31, (2R,6S)-4-(8-chloro-5-quinolyl)-2-methyl-6-[(5-piperazin-1-ylisoindolin-2-yl)methyl]morpholine], 168 nM; for `C[C@@H]1CN(c2ccc(Cl)c3ncccc23)C[C@H](CN2CCc3cc(N4CCNCC4)ccc3C2)O1` [Example 32, (2R,6S)-4-(8-chloro-5-quinolyl)-2-methyl-6-[(6-piperazin-1-yl-3,4-dihydro-1H-isoquinolin-2-yl)methyl]morpholine], 123 nM. For `C[C@@H]1CN(c2ccc(Cl)c3nccnc23)C[C@H](CN2Cc3ccc(N4CCNCC4)cc3C2)O1` [Example 33, (2R,6S)-4-(8-chloroquinoxalin-5-yl)-2-methyl-6-[(5-piperazin-1-ylisoindolin-2-yl)methyl]morpholine] the value was 174 nM. In the case of `C[C@@H]1CN(c2ccc(Cl)c3nccnc23)C[C@H](CN2CCc3cc(N4CCNCC4)ccc3C2)O1` [Example 34, (2R,6S)-4-(8-chloroquinoxalin-5-yl)-2-methyl-6-[(6-piperazin-1-yl-3,4-dihydro-1H-isoquinolin-2-yl)methyl]morpholine] it was 125 nM; in that of `C[C@@H]1CN(c2ccc(C#N)c3nccnc23)C[C@H](CN2Cc3ccc(N4CCN(C5CC5)CC4)cc3C2)O1` [Example 35, 8-[(2S,6R)-2-[[5-(4-cyclopropylpiperazin-1-yl)isoindolin-2-yl]methyl]-6-methyl-morpholin-4-yl]quinoxaline-5-carbonitrile], 216 nM; in that of `CC1CN(c2ccc3c(c2)CN(C[C@H]2CN(c4ccc(C#N)c5nccnc45)C[C@@H](C)O2)C3)CCN1` (stereo partly drawn) [Example 36, 8-[(2R,6S)-2-methyl-6-[[5-(3-methylpiperazin-1-yl)isoindolin-2-yl]methyl]morpholin-4-yl]quinoxaline-5-carbonitrile], 57 nM.

As for `COCCN1CCN(c2ccc3c(c2)CN(C[C@H]2CN(c4ccc(C#N)c5nccnc45)C[C@@H](C)O2)C3)CC1` [Example 37, 8-[(2S,6R)-2-[[5-[4-(2-methoxyethyl)piperazin-1-yl]isoindolin-2-yl]methyl]-6-methyl-morpholin-4-yl]quinoxaline-5-carbonitrile], the IC50 was 260 nM.

As for `C[C@@H]1CN(c2ccc(C#N)c3nccnc23)C[C@H](CN2Cc3ccc(N4CCNC5(CC5)C4)cc3C2)O1` [Example 38, 8-[(2S,6R)-2-[[5-(4,7-diazaspiro[2.5]octan-7-yl)isoindolin-2-yl]methyl]-6-methyl-morpholin-4-yl]quinoxaline-5-carbonitrile], the IC50 was determined as 227 nM. On to `C[C@@H]1CN(c2ccc(C#N)c3nccnc23)C[C@H](CN2Cc3ccc(N4CCN5CCCCC5C4)cc3C2)O1` (stereo partly drawn) [Example 40, 8-[(2S,6R)-2-[[5-(1,3,4,6,7,8,9,9a-octahydropyrido[1,2-a]pyrazin-2-yl)isoindolin-2-yl]methyl]-6-methyl-morpholin-4-yl]quinoxaline-5-carbonitrile], for which the IC50 was found to be 122 nM. In the case of `C[C@@H]1CN(c2ccc(C#N)c3nccnc23)C[C@H](CN2Cc3ccc(N4C5CCC4CNC5)cc3C2)O1` [Example 41, 8-[(2S,6R)-2-[[5-(3,8-diazabicyclo[3.2.1]octan-8-yl)isoindolin-2-yl]methyl]-6-methyl-morpholin-4-yl]quinoxaline-5-carbonitrile] it was 227 nM; in that of `C[C@@H]1CN(c2ccc(C#N)c3ncccc23)C[C@H](CN2Cc3ccc(N4CC5CCC(C4)N5)cc3C2)O1` [Example 42, 5-[(2S,6R)-2-[[5-(3,8-diazabicyclo[3.2.1]octan-3-yl)isoindolin-2-yl]methyl]-6-methyl-morpholin-4-yl]quinoline-8-carbonitrile], 97 nM. For `C[C@@H]1CN(c2ccc(C#N)c3ncccc23)C[C@H](CN2Cc3ccc(N4C5CCC4CNC5)cc3C2)O1` [Example 43, 5-[(2S,6R)-2-[[5-(3,8-diazabicyclo[3.2.1]octan-8-yl)isoindolin-2-yl]methyl]-6-methyl-morpholin-4-yl]quinoline-8-carbonitrile] the value was 88 nM; for `C[C@@H]1CN(c2ccc(C#N)c3ncccc23)C[C@H](CN2Cc3ccc(N4C5CNCC4COC5)cc3C2)O1` [Example 46, 5-[(2R,6S)-2-methyl-6-[[5-(3-oxa-7,9-diazabicyclo[3.3.1]nonan-9-yl)isoindolin-2-yl]methyl]morpholin-4-yl]quinoline-8-carbonitrile], 75 nM. For `C[C@@H]1CN(c2ccc(C#N)c3ncccc23)C[C@H](CN2Cc3ccc(N4CC5(CNC5)C4)cc3C2)O1` [Example 47, 5-[(2S,6R)-2-[[5-(2,6-diazaspiro[3.3]heptan-2-yl)isoindolin-2-yl]methyl]-6-methyl-morpholin-4-yl]quinoline-8-carbonitrile], the IC50 turned out to be 83 nM.

Take `CC1c2ccc(N3CCNCC3)cc2CN1C[C@H]1CN(c2ccc(C#N)c3ncccc23)C[C@@H](C)O1` (stereo partly drawn) [Example 48, 5-[(2R,6S)-2-methyl-6-[(1-methyl-5-piperazin-1-yl-isoindolin-2-yl)methyl]morpholin-4-yl]quinoline-8-carbonitrile]: the IC50 amounted to 105 nM. In the case of `C[C@@H]1CN(c2ccc(C#N)c3nccnc23)C[C@H](CN2Cc3ccc(N4CC5COCC(C4)N5)cc3C2)O1` [Example 49, 8-[(2R,6S)-2-methyl-6-[[5-(3-oxa-7,9-diazabicyclo[3.3.1]nonan-7-yl)isoindolin-2-yl]methyl]morpholin-4-yl]quinoxaline-5-carbonitrile], the IC50 came out at 164 nM.
